In ChEMBL document CHEMBL1153384, “Synthesis, antimalarial activity, and preclinical pharmacology of a novel series of 4'-fluoro and 4'-chloro analogues of amodiaquine. Identification of a suitable "back-up" compound for N-tert-butyl isoquine” (J Med Chem, 2009):

Legend:
[1] = system: Plasmodium falciparum; test: Antimalarial activity against chloroquine-sensitive Plasmodium falciparum 3D7; type: functional, organism-based
[2] = system: Plasmodium falciparum; test: Antimalarial activity against chloroquine-resistant Plasmodium falciparum TM6; type: functional, organism-based
[3] = system: Plasmodium falciparum; test: Antimalarial activity against chloroquine-sensitive Plasmodium falciparum HB3; type: functional, organism-based
[4] = system: Plasmodium falciparum; test: Antimalarial activity against […] Plasmodium falciparum PH3; type: functional, organism-based
[5] = system: Plasmodium falciparum; test: Antimalarial activity against chloroquine-resistant Plasmodium falciparum TM4; type: functional, organism-based
[6] = system: Plasmodium falciparum; test: Antimalarial activity against […] Plasmodium falciparum Dd2; type: functional, organism-based
[7] = system: Plasmodium falciparum; test: Antimalarial activity against chloroquine-resistant Plasmodium falciparum V1/S; type: functional, organism-based; conditions: V1S
[8] = system: Plasmodium falciparum; test: Antimalarial activity against chloroquine-resistant Plasmodium falciparum J164; type: functional, organism-based
[9] = system: Plasmodium falciparum; test: Antimalarial activity against chloroquine-resistant Plasmodium falciparum K1
[10] = system: Plasmodium yoelii; test: In vivo antimalarial activity against Plasmodium yoelii NS peroral dosage; type: functional; conditions: po
[11] = Clearance in iv dosed mouse; type: ADME, organism-based; conditions: in vivo
[12] = Clearance in iv dosed rat; type: ADME, organism-based; conditions: in vivo
[13] = Oral bioavailability in mouse; type: ADME, organism-based; conditions: in vivo
[14] = Oral bioavailability in rat; type: ADME, organism-based; conditions: in vivo
[15] = biological target: T1, Cytochrome P450 3A4 (Homo sapiens, UniProt P08684); test: Inhibition of human CYP3A4 using PPR substrate; type: ADME
T1 sequence (P08684 whole entry): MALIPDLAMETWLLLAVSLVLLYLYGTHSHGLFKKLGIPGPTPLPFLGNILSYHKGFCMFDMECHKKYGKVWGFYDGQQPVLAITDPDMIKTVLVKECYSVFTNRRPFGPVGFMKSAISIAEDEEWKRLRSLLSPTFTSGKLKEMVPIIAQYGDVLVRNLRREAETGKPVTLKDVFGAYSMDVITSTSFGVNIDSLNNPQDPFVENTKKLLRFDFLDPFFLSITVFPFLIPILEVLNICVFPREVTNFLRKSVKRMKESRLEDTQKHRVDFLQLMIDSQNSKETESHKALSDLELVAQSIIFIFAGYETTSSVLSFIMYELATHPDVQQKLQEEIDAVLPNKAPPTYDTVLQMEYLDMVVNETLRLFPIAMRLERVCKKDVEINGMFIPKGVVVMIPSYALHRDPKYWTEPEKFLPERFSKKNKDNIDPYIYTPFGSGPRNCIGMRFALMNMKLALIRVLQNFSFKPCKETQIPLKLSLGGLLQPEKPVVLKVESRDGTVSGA

[16] = biological target: T2, Cytochrome P450 1A2 (Homo sapiens, UniProt P05177); test: Inhibition of human CYP1A2; type: ADME
T2 sequence (P05177 whole entry): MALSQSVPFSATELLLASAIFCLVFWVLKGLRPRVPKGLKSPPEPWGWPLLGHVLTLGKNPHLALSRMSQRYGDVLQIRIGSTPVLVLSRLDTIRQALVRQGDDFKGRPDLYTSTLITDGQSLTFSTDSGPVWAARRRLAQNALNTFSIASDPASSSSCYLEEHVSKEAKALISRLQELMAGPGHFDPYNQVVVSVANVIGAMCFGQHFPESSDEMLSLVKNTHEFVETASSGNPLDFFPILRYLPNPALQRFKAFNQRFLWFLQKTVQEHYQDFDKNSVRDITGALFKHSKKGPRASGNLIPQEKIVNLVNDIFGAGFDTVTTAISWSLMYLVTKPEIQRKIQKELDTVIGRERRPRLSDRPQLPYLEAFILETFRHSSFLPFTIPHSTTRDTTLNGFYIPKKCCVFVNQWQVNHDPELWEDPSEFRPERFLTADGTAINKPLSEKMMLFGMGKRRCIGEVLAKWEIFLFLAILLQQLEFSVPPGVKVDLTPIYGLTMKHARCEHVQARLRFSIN

[17] = biological target: Cytochrome P450 2D6 (Homo sapiens, UniProt P10635); test: Inhibition of human CYP2D6; type: ADME
Chain of Cytochrome P450 2D6 (P10635 whole entry): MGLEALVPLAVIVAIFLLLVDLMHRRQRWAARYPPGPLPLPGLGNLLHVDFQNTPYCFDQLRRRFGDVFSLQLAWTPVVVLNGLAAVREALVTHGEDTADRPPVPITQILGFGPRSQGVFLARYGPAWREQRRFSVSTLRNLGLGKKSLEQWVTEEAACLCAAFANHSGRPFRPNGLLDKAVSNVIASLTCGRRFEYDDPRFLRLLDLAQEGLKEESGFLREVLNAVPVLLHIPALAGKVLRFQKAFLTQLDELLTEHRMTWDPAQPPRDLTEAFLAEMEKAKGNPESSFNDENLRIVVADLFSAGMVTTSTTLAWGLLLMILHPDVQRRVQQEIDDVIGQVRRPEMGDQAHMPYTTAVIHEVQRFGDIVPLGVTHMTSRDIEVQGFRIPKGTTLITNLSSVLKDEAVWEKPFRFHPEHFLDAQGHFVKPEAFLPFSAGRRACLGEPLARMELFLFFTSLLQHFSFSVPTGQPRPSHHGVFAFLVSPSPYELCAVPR

[18] = biological target: T3, Cytochrome P450 2C8 (Homo sapiens, UniProt P10632); test: Inhibition of human CYP2C8; type: ADME
T3 sequence (P10632 whole entry): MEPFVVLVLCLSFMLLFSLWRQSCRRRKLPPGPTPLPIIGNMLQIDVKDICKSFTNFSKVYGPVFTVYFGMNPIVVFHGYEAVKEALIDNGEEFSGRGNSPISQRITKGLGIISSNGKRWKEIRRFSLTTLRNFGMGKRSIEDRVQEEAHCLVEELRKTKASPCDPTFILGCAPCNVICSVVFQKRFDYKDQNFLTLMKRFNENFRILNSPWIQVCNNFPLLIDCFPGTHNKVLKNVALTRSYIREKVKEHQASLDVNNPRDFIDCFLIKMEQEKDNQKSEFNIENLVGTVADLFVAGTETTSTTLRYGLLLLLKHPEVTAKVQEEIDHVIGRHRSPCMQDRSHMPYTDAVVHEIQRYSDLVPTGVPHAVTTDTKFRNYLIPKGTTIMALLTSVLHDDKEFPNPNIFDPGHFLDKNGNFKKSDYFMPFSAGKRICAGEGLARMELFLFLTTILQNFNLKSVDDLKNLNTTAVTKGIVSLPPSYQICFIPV

[19] = biological target: Cytochrome P450 2C9 (Homo sapiens, UniProt P11712); test: Inhibition of human CYP2C9; type: ADME
Chain of Cytochrome P450 2C9 (P11712 whole entry): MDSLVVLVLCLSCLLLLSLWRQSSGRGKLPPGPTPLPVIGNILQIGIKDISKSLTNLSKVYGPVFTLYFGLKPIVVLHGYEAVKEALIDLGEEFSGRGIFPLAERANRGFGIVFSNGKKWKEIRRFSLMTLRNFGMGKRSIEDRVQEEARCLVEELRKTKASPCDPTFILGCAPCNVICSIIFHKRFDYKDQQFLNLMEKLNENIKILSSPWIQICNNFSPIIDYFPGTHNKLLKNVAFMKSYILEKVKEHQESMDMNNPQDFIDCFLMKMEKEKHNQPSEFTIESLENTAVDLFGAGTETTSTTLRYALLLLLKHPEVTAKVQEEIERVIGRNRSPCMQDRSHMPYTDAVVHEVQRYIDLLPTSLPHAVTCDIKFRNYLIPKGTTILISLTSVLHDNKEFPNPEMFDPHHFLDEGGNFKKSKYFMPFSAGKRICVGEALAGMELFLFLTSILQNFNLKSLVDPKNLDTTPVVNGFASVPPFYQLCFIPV

[20] = biological target: Cytochrome P450 2C19 (Homo sapiens, UniProt P33261); test: Inhibition of human CYP2C19; type: ADME
Chain of Cytochrome P450 2C19 (P33261 whole entry): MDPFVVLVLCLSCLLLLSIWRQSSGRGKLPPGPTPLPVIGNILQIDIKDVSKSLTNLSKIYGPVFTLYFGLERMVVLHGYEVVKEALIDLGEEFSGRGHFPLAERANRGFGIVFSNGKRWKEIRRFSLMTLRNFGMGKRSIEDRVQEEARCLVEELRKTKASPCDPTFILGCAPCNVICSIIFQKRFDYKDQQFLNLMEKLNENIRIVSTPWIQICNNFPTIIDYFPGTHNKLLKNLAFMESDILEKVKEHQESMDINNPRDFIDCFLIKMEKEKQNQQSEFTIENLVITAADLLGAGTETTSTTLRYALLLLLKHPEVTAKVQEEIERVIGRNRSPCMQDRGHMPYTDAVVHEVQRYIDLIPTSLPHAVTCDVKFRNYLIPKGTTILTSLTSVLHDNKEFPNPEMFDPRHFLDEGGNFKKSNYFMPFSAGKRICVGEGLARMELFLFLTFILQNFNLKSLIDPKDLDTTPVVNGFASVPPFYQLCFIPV

[21] = system: Plasmodium yoelii; test: Antimalarial activity as reduced parasitaemia against Plasmodium yoelii 17X infected CD1 mice (Mus musculus) perorally dosed daily for 4 days; type: functional; conditions: po, 96 h
[22] = biological target: T1, Cytochrome P450 3A4; test: Inhibition of human CYP3A4 using DEF substrate
[23] = system: Plasmodium yoelii; test: Antimalarial activity as minimal concentration for parasite elimination at day 23 against Plasmodium yoelii 17X intravenously inoculated CD1 mice (Mus musculus) dosed 1 hrs post infection then daily for 4 days
[24] = Partition coefficient, log P of the compound; type: physicochemical; conditions: octanol/water
[25] = biological target: T1, Cytochrome P450 3A4; test: Inhibition of human CYP3A4 using DEF substrate; type: ADME
[26] = Toxicity against Wistar rat hepatocytes after 6 hrs by trypan blue exclusion method; type: cell-based, Hepatocyte; conditions: read-out: TC50
[27] = system: Mus musculus; test: Toxicity in po dosed mouse assessed as maximal nonlethal dose administered as single dose; type: organism-based; conditions: in vivo
[28] = Toxicity in po dosed mouse assessed as drug level causing no observed adverse effects administered as single dose; type: organism-based; conditions: in vivo, read-out: Activity
[29] = Toxicity in po dosed mouse assessed as drug level causing no observed adverse effects administered as once daily for 4 days; type: organism-based; conditions: in vivo, read-out: Activity
[30] = system: Mus musculus; test: Toxicity in po dosed mouse assessed as induction of hepatotoxicity at drug dose above no observed adverse effects level; type: organism-based; conditions: in vivo
[31] = system: Mus musculus; test: Toxicity in po dosed mouse assessed as induction of hematological toxicity at drug dose above no observed adverse effects level; type: organism-based; conditions: in vivo
[32] = Distribution coefficient, log D at pH 7.4; conditions: octanol/water
[33] = system: Heme; test: Binding affinity to heme assessed as binding constant for stepwise binding of 2 equivalent of drug to 1 molecule of heme in presence of 40% DMSO by UV-visible spectroscopy
[34] = system: Heme; test: Binding affinity to heme assessed as binding constant for stepwise binding of 2 molecules of heme to 1 equivalent of drug in presence of 40% DMSO by UV-visible spectroscopy
[35] = biological target: β-hematin formation (no protein target); test: Inhibition of beta-hematin formation as molar equivalent relative to hemin causing blockade in BHIA

`Fc1ccc(Nc2ccnc3cc(Cl)ccc23)cc1CN1CCCC1` gave an IC50 [1] of 29.7 nM, an IC50 [2] of 60.8 nM and an IC50 [3] of 63.7 nM. It also gave an IC50 [4] of 25 nM, an IC50 [5] of 46.9 nM and an IC50 [6] of 36.9 nM. The IC50 [7] was 52.5 nM, the IC50 [8] was 34.7 nM and the IC50 [9] was 45.9 nM.
For `CN1CCN(Cc2cc(Nc3ccnc4cc(Cl)ccc34)ccc2F)CC1`, the IC50 [1] was 35.1 nM.
Compound `CCN(CC)Cc1ccc(Nc2ccnc3cc(Cl)ccc23)cc1O` [ISOQUINE] has an ED50 [10] of 1.6 mg/kg, an IC50 [1] of 7.8 nM and a clearance [11] of 219 mL/min/kg. It also gave a clearance [12] of 89.2 mL/min/kg, a bioavailability [13] of 21% and a bioavailability [14] of 17%. The IC50 [15] was “Active”, the IC50 [16] was 23000 nM and the IC50 [17] was 7000 nM. The IC50 [18] was 13000 nM, the IC50 [19] was 75000 nM and the IC50 [20] was 39000 nM. For the same compound, the ED50 [21] was 5.2 mg/kg, the ED90 [21] was 7.6 mg/kg and the IC50 [22] was > 100000 nM. For the same compound, the Activity [23] was >40 mg/kg.
`CCN(CC)Cc1cc(Nc2ccnc3cc(Cl)ccc23)ccc1O.Cl` showed an ED50 [10] of 7.4 mg/kg, an IC50 [2] of 7.2 nM and an IC50 [3] of 5.5 nM. For the same compound, the logP [24] was 4.37, the IC50 [25] was 28000 nM and the IC50 ([15]; read-out: IC50) was > 100000 nM. For the same compound, the CC50 at 6 h [26] was 78000 nM, the Activity [27] was > 500 mg/kg and the NOAEL [28] was 100 mg/kg. For the same compound, the NOAEL at 96 h [29] was 100 mg/kg, the Activity [30] was “Toxic” and the Activity [31] was “Toxic”. The logD [32] was 3.08, the IC50 [7] was 8.9 nM and the IC50 [8] was 18.5 nM. It also gave a log Ks [33] of 4.4 and a log Ks [34] of 6.2.
For `CCN(CC)CCCC(C)Nc1ccnc2cc(Cl)ccc12` (configuration not stated) [CHLOROQUINE], the NOAEL [28] was 300 mg/kg, the NOAEL at 96 h [29] was 300 mg/kg and the Activity [30] was “Toxic”. The Activity [31] was “Toxic”.
With `CCN1CCN(Cc2cc(Nc3ccnc4cc(Cl)ccc34)ccc2Cl)CC1` the IC50 [1] was 39.7 nM, the IC50 [2] was 10.3 nM and the IC50 [3] was 9.6 nM.
Work on `Clc1ccc2c(Nc3cccc(Cn4ccnc4)c3)ccnc2c1` yielded an IC50 [35] of 2.65 molar ratio.
Compound `Fc1ccc(Nc2ccnc3cc(Cl)ccc23)cc1CN1CCOCC1` has an IC50 [1] of 551 nM.
